Source: ChEMBL document CHEMBL3351442, “Synthesis and antiproliferative evaluation of 2-hydroxylated (E)-stilbenes” (Bioorg Med Chem Lett, 2014)

Columns and labels:
Assay type in all cases: functional, cell-based
[1] = Antiproliferative activity against human MDA468 cells by MTT assay; conditions: MDA-MB-468
[2] = system: HT-29; assay: Antiproliferative activity against human HT-29 cells by MTT assay
[3] = Antiproliferative activity against human COLO205 cells by MTT assay; conditions: COLO 205
[4] = system: MGC-803; assay: Antiproliferative activity against human MGC803 cells by MTT assay

IC50 [2] [µM] | IC50 [4] [µM] | SMILES | IC50 [1] [µM] | IC50 [3] [µM]
– | – | COc1cccc(/C=C/c2ccc(O)cc2)c1O | 6.9 | –
22.9 | – | Cc1ccc(/C=C/c2ccccc2O)cc1 | 21.9 | –
– | – | Oc1ccccc1/C=C/c1ccccc1 | 19.3 | –
– | – | COc1ccc(/C=C/c2cccc(OC)c2O)c(OC)c1 | 5.1 | –
– | 1.1 | COc1cccc(/C=C\c2cc(OC)c(OC)c(OC)c2)c1O | 2.6 | –
87.2 | 42 | Oc1ccc(/C=C/c2cc(O)cc(O)c2)cc1 [RESVERATROL] | 45.2 | 23.5
13.3 | 5 | Cc1cc(C)cc(/C=C/c2cc(Br)ccc2O)c1 | 7.2 | –
10 | 3.5 | COc1ccc(/C=C/c2cc(Br)ccc2O)c(OC)c1 | 3.7 | –
18.5 | 4.5 | COc1cc(/C=C/c2cc(Br)ccc2O)cc(OC)c1OC | 14.2 | –
– | – | COc1ccc(/C=C/c2cccc(OC)c2O)cc1 | – | 20.2
9.5 | 3.3 | COc1cc(/C=C/c2cc(Br)ccc2O)cc(OC)c1 | 6.1 | 16.4
33.5 | – | Oc1ccc(/C=C/c2ccccc2O)cc1 | – | –
14.4 | – | Oc1ccccc1/C=C/c1ccc(Br)cc1 | 7.4 | 21.1
12.6 | 10.6 | COc1cc(/C=C/c2cc([N+](=O)[O-])ccc2O)cc(OC)c1 | – | –
26.2 | 6.3 | COc1cc(/C=C/c2ccccc2O)cc(OC)c1 | 12.6 | –
26.7 | – | Oc1ccc(/C=C/c2cc(Br)ccc2O)cc1 | 3.5 | –
– | 14.7 | COc1cc(/C=C/c2cc([N+](=O)[O-])ccc2O)cc(OC)c1OC | – | –
26.2 | – | Oc1cc(O)cc(/C=C/c2ccccc2O)c1 | – | –
– | 3.1 | N#Cc1ccc(/C=C/c2ccccc2O)cc1 | – | –

SMILES | IC50 [2] [µM] | IC50 [4] [µM] | IC50 [1] [µM] | IC50 [3] [µM]
COc1ccc(/C=C/c2cc(OC)c(OC)c(OC)c2)c(O)c1 | 9.7 | 0.035 | 5.3 | 5.3
